According to EP4700025A1, “AMIDE COMPOUND, PHARMACEUTICAL COMPOSITION COMPRISING SAME, AND USE THEREOF” (Suzhou Genhouse Bio Co., Ltd., priority 2023, dated 2024):
Like-named read-outs stand apart in the source and are kept apart here.

What was measured:
[1] = molecular target: T1, CYP450 2C19 (Homo sapiens, UniProt P33261); test: Inhibition of human liver microsome CYP450 enzyme 2C19; type: in vitro ADME
T1 construct: from tissue; host or cells: human liver microsomes
Method: 100 mM K-Buffer: 9.5 mL of stock solution A was mixed with 40.5 mL of stock solution B, the total volume was adjusted to 500 mL with ultrapure water, and the buffer was titrated to pH 7.4 with KOH or H3PO4. • Starting material A (1 M potassium dihydrogen phosphate): 136.5 g of potassium dihydrogen phosphate in 1 L of water; • Stock solution B ([…]): 174.2 g of potassium dihydrogen phosphate in 1 L of water.
The test substance powder was prepared into a stock solution at a certain concentration with DMSO or another organic solvent, which was then further diluted with a suitable organic solvent.
The liver microsomal in vitro incubation system for the CYP450 enzyme metabolism phenotype study was a biochemical reaction of the prepared liver microsomes supplemented with a redox coenzyme and an enzyme-specific selective inhibitor under simulated physiological temperature and physiological environment conditions.
The concentration of the parent drug or a metabolite thereof in the incubation solution was determined by LC-MS/MS. and the IC50 value was calculated.

[2] = system: NCI-H838 cells; test: Pharmacodynamic study, NCI-H838 subcutaneous xenograft; type: in vivo, mouse
Method: Human non-small cell lung cancer NCI-H838 cells were cultured in monolayer in vitro using the McCoy 5A culture medium (HyClone) containing 10% fetal bovine serum (BI) and 1% penicillin and streptomycin (Beyotime) in an incubator at 37 °C with 5% CO2. The cells were digested with trypsin 2 to 3 times weekly for passaging. When the saturation degree of the cells was 80% to 90%, the cells were collected, counted, and inoculated. 5 × 10^6 (0.1 mL) NCI-H838 cells were subcutaneously inoculated on the right back of each mouse. On about day 29 after inoculation of the cells, the mean tumor volume reached 156 mm^3. The mice were randomly grouped for administration (the animals were divided into an administration group and a control group, with 6 animals in each group). The day of grouping was designated as d0, and intragastric administration was started on d1. The administration was performed once daily at an administration volume of 10 mL/kg. Vehicle control was administered to the control group. The tumor volume was measured 2 to 3 times weekly, and meanwhile, the mice were weighed and the data were recorded; daily observations were made to record the body surface signs of the mice. After the experiment was completed, the tumors were collected, weighed, and photographed for recording.
Calculation formula for tumor volume: Tumor volume (mm^3) = 1/2 × (a×b^2) [formula] (note: a represents long diameter and b represents short diameter) [formula]

[3] = molecular target: T2, hERG Potassium Ion Channel (Homo sapiens, UniProt Q12809); test: Effect on hERG potassium ion channel (whole-cell patch clamp, HEK293 cells); type: cell-based; conditions: human, whole-cell patch clamp (Qpatch), room temperature
T2 construct: expressed in transfected cells; host or cells: HEK293
T2 sequence (Q12809 whole entry): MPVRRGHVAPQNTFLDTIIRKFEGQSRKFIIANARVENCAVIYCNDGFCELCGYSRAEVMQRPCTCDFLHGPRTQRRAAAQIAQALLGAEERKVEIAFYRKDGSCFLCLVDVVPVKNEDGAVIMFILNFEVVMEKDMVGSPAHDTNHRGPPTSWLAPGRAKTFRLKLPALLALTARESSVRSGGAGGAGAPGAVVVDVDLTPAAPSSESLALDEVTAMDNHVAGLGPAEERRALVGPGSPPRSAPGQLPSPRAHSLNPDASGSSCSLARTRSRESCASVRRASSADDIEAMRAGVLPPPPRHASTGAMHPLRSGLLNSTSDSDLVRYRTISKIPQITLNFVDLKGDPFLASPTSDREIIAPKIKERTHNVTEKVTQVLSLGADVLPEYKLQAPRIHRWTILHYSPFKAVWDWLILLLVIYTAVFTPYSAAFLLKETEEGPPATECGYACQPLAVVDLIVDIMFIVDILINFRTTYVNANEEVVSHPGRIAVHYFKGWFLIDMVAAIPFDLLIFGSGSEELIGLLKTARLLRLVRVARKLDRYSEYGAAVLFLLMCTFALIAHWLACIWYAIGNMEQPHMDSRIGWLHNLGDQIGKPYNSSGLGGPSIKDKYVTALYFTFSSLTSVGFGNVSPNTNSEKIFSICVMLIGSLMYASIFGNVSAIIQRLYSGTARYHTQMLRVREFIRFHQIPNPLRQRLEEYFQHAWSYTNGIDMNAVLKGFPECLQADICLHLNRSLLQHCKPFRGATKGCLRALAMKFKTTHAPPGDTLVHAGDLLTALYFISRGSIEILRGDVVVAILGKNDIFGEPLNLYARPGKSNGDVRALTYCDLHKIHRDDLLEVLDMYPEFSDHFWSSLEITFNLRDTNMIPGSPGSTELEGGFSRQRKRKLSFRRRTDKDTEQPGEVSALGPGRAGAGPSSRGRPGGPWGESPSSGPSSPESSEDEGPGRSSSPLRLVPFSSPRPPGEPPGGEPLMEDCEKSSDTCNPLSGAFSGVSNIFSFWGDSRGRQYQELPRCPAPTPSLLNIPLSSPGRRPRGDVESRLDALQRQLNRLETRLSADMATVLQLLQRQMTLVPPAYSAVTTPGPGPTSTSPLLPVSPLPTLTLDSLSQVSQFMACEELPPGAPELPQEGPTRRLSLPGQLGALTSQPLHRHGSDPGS
Method: HEK293 cells were cultured in a DMEM medium containing 10% fetal bovine serum and 0.8 mg/mL G418 at 37 °C with 5% CO2. The cells were digested by TrypLE™ Express and then centrifuged. The cell density was adjusted to 2 × 10^6 cells/mL. The cells were then gently mixed for 15 to 20 min using a shaker equilibrated at room temperature, and subjected to a patch clamp assay on a machine. The culture medium of the prepared cells was replaced with extracellular fluid. The intracellular fluid and the extracellular fluid were taken from the fluid pool and added to the intracellular fluid pool and the cell and test substance pool of the QPlate chip, respectively. The voltage stimulation of the whole-cell hERG potassium current was recorded by the whole-cell patch clamp, and the experimental data were collected and stored by Qpatch. […] The current detected in compound-free extracellular fluid for each cell served as its own control group, and the detection was repeated twice independently using at least two cells per concentration. […] For data analysis, the current after the action of each drug concentration and the current of the blank control were standardized ((Peak tail currentcompound)/(Peak tail currentvehicle)) [formula] , and then the inhibition rate corresponding to each drug concentration was calculated (1−(Peak tail currentcompound)/(Peak tail currentvehicle)) [formula] . […]

T1 sequence (P33261 whole entry): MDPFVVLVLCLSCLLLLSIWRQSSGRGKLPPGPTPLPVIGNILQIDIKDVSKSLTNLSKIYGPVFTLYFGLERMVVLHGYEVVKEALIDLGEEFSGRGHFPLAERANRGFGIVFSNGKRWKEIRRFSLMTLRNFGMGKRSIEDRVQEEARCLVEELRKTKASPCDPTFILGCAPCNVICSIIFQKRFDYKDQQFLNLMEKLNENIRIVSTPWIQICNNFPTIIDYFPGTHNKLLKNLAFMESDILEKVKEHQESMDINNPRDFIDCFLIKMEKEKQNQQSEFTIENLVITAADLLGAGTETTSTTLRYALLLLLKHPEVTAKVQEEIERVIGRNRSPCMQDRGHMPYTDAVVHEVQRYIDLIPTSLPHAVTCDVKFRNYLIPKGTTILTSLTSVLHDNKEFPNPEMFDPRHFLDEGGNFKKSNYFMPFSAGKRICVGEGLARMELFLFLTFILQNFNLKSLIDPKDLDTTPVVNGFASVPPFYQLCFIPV

SMILES	IC50 ([1]; human, microsomes, pH 7.4)	IC50 ([1]; human liver microsomes, 2C19, read-out: IC50)	Day 31 TGI ([2]; 10 mpk PO QD)	Day 31 TGI ([2]; 30 mpk PO QD)	Day 31 TGI ([2]; 100 mpk PO QD)	IC50 [3]
Cn1ncc2c(N)nc3cc(F)c(C(=O)N4CCOC[C@@H]4c4ccc5c(c4)OC(F)(F)O5)cc3c21 [Example I-7]	> 10 µM	–	–	–	–	–
Cn1ncc2c(N)nc3cc(F)c(C(=O)N(Cc4ccc5c(c4)OC(F)(F)O5)C4CC4)cc3c21 [Example I-16]	–	> 10 µM	97%	–	–	–
Cn1ncc2c(N)nc3cnc(C(=O)N4CCOC[C@@H]4c4ccc5c(c4)OC(F)(F)O5)cc3c21 [Example I-38]	–	–	75%	105%	107%	22 µM
